Experimental data from publication PMC10382584, “Macrocyclization of linear molecules by deep learning to facilitate macrocyclic drug candidates discovery” (Nature Communications, 2023).

Columns and labels:
Assay in all cases: biochemical
Parameters in all cases: DiscoveRx KINOMEscan competition binding, percent of DMSO control signal at 100 nM
Conditions in all cases: read-out: Fig. 4a / Percent Control / Compound 1; percent of DMSO control, competition binding
MEK6 = target: T1, MEK6 (Homo sapiens, UniProt P52564)
T1 construct: gene MAP2K6
Procedure: (§1) The kinase selectivity profile was performed by using the DiscoveRx KINOMEscan platform. […] Test compounds were prepared as 40× stocks in 100% DMSO and directly diluted into the assay. The results were defined as a percentage of signal between the negative (DMSO, 100% control) and the positive (control compound, 0% control) control, which was calculated as follows: percent control = [(test compound signal − positive control signal)/(negative control signal − positive control signal)] × 100.

PRKG2 = PRKG2 (Homo sapiens, UniProt Q13237)
Procedure: as §1

OSR1 = target: T2, OSR1 (Homo sapiens, UniProt O95747)
T2 construct: gene OXSR1
Procedure: as §1

EGFR(L858R,T790M) = EGFR(L858R,T790M) (Homo sapiens, UniProt P00533, L858R/T790M)
Procedure: as §1

ACVR1 = ACVR1 (Homo sapiens, UniProt Q04771)
Procedure: as §1

PIK3CD = PIK3CD (Homo sapiens, UniProt O00329)
Procedure: as §1

PIP5K1C = PIP5K1C (Homo sapiens, UniProt O60331)
Procedure: as §1

DLK = target: T3, DLK (Homo sapiens, UniProt Q12852)
T3 construct: gene MAP3K12
Procedure: as §1

MAP3K2 = MAP3K2 (Homo sapiens, UniProt Q9Y2U5)
Procedure: as §1

AURKC = AURKC (Homo sapiens, UniProt Q9UQB9)
Procedure: as §1

PFTAIRE2 = target: T4, PFTAIRE2 (Homo sapiens, UniProt Q96Q40)
T4 construct: gene CDK15
Procedure: as §1

CAMK1 = CAMK1 (Homo sapiens, UniProt Q14012)
Procedure: as §1

KIT(D816H) = KIT(D816H) (Homo sapiens, UniProt P10721, D816H)
Procedure: as §1

PHKG1 = PHKG1 (Homo sapiens, UniProt Q16816)
Procedure: as §1

CLK1 = CLK1 (Homo sapiens, UniProt P49759)
Procedure: as §1

CAMK1B = target: T5, CAMK1B (Homo sapiens, UniProt Q6P2M8)
T5 construct: gene PNCK
Procedure: as §1

ADCK4 = target: T6, ADCK4 (Homo sapiens, UniProt Q96D53)
T6 construct: gene COQ8B
Procedure: as §1

ERK1 = target: T7, ERK1 (Homo sapiens, UniProt P27361)
T7 construct: gene MAPK3
Procedure: as §1

TXK = TXK (Homo sapiens, UniProt P42681)
Procedure: as §1

JNK3 = target: T8, JNK3 (Homo sapiens, UniProt P53779)
T8 construct: gene MAPK10
Procedure: as §1

CDK4 = CDK4 (Homo sapiens, UniProt P11802)
Procedure: as §1

IKK-epsilon = target: T9, IKK-epsilon (Homo sapiens, UniProt Q14164)
T9 construct: gene IKBKE
Procedure: as §1

[1] = target: T10, RSK4(Kin.Dom.1-N-terminal) (Homo sapiens, UniProt Q9UK32)
T10 construct: gene RPS6KA6; Kin.Dom.1-N-terminal
Procedure: as §1

VEGFR2 = target: T11, VEGFR2 (Homo sapiens, UniProt P35968)
T11 construct: gene KDR
Procedure: as §1

EPHB4 = EPHB4 (Homo sapiens, UniProt P54760)
Procedure: as §1
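Further: KINOMEscan kinase panel binding assay, signal normalized between DMSO as 100% and a positive control compound as 0%.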

T4 sequence (Q96Q40 whole entry): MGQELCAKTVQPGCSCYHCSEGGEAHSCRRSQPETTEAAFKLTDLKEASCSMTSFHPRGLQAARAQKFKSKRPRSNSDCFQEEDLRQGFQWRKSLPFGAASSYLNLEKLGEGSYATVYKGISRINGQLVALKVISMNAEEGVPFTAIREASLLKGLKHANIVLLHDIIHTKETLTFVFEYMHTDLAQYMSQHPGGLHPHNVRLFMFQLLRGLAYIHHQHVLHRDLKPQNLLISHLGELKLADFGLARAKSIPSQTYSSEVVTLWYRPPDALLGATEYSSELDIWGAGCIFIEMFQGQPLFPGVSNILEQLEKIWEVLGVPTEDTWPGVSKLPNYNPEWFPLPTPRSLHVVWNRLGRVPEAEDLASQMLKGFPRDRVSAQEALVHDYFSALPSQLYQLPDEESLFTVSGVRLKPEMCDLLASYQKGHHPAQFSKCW
Sequence of TXK (P42681 whole entry): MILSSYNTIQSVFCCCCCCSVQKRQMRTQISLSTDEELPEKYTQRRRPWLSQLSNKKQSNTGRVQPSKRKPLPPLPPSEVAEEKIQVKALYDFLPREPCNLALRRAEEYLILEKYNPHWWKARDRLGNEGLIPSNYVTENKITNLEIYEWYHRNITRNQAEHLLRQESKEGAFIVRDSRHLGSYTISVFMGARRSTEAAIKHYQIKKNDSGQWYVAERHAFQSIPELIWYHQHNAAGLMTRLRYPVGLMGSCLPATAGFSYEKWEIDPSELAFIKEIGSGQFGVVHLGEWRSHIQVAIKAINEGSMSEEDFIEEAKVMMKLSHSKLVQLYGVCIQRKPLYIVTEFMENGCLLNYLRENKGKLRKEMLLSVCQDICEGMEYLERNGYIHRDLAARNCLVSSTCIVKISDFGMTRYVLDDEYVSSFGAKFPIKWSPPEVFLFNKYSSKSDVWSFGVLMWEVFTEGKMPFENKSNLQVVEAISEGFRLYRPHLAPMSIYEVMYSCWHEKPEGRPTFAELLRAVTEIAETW
Sequence of KIT(D816H) (P10721 whole entry D816H): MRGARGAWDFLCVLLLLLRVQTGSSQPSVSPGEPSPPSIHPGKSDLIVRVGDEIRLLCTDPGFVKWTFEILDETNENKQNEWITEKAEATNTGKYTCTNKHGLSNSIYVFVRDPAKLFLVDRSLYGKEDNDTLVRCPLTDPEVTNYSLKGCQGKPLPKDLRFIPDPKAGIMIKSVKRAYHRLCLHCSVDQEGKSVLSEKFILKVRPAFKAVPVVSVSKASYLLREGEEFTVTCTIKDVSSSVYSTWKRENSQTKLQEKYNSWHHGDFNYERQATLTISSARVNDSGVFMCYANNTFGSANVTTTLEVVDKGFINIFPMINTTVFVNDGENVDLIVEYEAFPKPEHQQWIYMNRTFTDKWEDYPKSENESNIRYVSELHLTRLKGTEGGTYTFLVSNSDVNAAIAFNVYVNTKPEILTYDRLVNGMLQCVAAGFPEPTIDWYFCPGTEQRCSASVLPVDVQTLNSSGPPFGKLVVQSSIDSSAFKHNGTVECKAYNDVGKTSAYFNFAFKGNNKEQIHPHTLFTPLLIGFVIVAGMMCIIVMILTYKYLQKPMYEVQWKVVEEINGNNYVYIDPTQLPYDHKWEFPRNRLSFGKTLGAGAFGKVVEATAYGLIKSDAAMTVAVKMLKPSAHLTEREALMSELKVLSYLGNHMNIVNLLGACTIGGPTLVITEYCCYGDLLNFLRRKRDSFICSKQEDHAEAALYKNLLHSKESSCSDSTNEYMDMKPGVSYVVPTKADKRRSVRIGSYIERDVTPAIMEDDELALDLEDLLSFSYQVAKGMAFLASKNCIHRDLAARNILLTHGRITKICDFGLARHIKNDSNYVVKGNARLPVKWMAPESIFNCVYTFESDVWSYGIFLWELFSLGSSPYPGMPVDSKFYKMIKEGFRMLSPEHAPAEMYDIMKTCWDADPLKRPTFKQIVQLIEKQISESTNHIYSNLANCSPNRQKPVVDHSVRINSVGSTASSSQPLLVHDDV
T5 sequence (Q6P2M8 whole entry): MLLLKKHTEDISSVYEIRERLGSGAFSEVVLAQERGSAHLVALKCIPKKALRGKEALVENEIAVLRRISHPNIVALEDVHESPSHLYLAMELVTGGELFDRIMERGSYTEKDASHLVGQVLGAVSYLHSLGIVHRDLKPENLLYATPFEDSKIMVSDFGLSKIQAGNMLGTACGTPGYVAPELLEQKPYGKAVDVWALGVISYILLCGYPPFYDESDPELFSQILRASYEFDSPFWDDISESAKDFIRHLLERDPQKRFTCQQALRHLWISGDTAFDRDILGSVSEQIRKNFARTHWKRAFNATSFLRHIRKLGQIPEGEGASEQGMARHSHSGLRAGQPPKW
Sequence of MAP3K2 (Q9Y2U5 whole entry): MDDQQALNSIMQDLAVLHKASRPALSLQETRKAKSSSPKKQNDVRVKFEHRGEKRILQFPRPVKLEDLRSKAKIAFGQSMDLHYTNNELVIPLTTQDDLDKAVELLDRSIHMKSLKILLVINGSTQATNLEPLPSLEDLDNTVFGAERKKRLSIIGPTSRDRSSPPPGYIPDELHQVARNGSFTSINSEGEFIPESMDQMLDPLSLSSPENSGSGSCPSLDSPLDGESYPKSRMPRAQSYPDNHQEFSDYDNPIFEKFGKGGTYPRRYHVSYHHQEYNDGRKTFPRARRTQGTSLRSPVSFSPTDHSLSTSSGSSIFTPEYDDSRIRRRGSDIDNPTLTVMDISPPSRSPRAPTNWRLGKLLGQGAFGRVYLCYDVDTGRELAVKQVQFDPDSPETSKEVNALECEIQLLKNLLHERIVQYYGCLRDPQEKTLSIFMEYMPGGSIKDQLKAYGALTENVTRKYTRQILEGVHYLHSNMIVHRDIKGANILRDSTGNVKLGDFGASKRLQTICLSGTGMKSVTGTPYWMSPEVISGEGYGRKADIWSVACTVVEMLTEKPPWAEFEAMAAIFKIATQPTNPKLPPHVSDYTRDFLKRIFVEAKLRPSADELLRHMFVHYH
Sequence of PHKG1 (Q16816 whole entry): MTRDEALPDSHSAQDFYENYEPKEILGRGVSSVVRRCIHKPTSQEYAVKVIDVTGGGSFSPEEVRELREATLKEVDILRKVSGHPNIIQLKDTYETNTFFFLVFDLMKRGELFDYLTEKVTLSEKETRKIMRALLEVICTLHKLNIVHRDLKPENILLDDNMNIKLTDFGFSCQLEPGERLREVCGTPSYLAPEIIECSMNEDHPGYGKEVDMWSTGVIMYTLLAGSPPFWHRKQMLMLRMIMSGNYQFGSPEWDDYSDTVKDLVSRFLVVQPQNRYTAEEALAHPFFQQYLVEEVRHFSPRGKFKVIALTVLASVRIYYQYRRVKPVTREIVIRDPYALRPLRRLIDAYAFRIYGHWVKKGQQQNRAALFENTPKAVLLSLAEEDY
Sequence of PRKG2 (Q13237 whole entry): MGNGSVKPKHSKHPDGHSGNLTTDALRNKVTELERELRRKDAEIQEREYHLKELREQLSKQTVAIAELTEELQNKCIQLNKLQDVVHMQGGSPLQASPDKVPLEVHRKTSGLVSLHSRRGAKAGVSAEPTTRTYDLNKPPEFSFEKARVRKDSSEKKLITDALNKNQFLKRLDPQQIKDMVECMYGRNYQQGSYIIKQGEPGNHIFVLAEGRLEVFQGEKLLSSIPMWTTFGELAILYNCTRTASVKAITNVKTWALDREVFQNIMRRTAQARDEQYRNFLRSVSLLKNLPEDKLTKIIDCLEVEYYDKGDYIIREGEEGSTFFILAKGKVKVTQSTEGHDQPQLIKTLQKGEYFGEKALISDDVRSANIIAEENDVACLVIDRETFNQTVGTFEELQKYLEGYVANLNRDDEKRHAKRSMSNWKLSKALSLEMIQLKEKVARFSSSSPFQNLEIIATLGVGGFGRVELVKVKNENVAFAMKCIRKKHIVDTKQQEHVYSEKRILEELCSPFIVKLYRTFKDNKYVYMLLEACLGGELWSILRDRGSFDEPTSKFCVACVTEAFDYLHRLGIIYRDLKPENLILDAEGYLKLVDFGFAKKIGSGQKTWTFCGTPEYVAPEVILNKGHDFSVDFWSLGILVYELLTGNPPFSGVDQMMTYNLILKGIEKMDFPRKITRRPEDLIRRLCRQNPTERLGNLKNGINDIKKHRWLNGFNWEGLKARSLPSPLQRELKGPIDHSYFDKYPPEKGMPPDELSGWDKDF
Sequence of CAMK1 (Q14012 whole entry): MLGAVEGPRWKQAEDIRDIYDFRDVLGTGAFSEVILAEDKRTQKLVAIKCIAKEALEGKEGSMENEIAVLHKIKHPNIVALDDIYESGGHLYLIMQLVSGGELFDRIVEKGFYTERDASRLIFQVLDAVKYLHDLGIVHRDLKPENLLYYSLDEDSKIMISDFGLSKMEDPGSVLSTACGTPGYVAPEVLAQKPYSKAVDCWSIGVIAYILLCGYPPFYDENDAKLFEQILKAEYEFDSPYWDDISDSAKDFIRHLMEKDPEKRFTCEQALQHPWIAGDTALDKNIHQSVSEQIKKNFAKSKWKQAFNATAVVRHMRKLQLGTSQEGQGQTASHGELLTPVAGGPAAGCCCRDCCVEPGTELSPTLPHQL
T7 sequence (P27361 whole entry): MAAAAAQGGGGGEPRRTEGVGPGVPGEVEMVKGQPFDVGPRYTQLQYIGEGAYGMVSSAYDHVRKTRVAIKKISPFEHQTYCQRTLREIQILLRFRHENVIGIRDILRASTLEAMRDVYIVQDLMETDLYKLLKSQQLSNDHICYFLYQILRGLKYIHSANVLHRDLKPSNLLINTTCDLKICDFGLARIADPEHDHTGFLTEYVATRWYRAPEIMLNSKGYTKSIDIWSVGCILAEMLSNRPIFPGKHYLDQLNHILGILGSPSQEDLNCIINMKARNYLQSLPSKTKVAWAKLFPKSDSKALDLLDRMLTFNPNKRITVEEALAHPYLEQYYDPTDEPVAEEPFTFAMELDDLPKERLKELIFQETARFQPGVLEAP

**Q.** How did the remaining binding at 0.1 µM (MEK6) turn out when `Cc1cnc2nc1Nc1cccc(c1)COCc1cc(ccc1OCCN1CCCC1)N2` [Compound 1] was run?
**A.** 100%

**Q.** And the remaining binding at 0.1 µM (PRKG2)?
**A.** 47%

**Q.** And the remaining binding at 0.1 µM (OSR1)?
**A.** 66%

**Q.** What about the remaining binding at 0.1 µM (EGFR(L858R,T790M)) of the same compound?
**A.** 65%

**Q.** What about the remaining binding at 0.1 µM (ACVR1) of the same compound?
**A.** 92%

**Q.** What about the remaining binding at 0.1 µM (PIK3CD) of the same compound?
**A.** 89%

**Q.** And the remaining binding at 0.1 µM (PIP5K1C)?
**A.** 66%

**Q.** What about the remaining binding at 0.1 µM (DLK) of the same compound?
**A.** 43%

**Q.** And the remaining binding at 0.1 µM (MAP3K2)?
**A.** 50%

**Q.** What about the remaining binding at 0.1 µM (AURKC) of the same compound?
**A.** 100%

**Q.** And the remaining binding at 0.1 µM (PFTAIRE2)?
**A.** 85%

**Q.** And the remaining binding at 0.1 µM (CAMK1)?
**A.** 92%

**Q.** What about the remaining binding at 0.1 µM (KIT(D816H)) of the same compound?
**A.** 60%

**Q.** What about the remaining binding at 0.1 µM (PHKG1) of the same compound?
**A.** 87%

**Q.** What about the remaining binding at 0.1 µM (CLK1) of the same compound?
**A.** 95%

**Q.** And the remaining binding at 0.1 µM (CAMK1B)?
**A.** 92%

**Q.** And the remaining binding at 0.1 µM (ADCK4)?
**A.** 61%

**Q.** And the remaining binding at 0.1 µM (ERK1)?
**A.** 100%

**Q.** What about the remaining binding at 0.1 µM (TXK) of the same compound?
**A.** 94%

**Q.** What about the remaining binding at 0.1 µM (JNK3) of the same compound?
**A.** 43%

**Q.** And the remaining binding at 0.1 µM (CDK4)?
**A.** 96%

**Q.** And the remaining binding at 0.1 µM (IKK-epsilon)?
**A.** 100%

**Q.** And the remaining binding at 0.1 µM [1]?
**A.** 64%

**Q.** And the remaining binding at 0.1 µM (VEGFR2)?
**A.** 63%

**Q.** And the remaining binding at 0.1 µM (EPHB4)?
**A.** 100%
